Results: patent US5962493A, “2-mercaptobenzimidazole derivatives and antihyperlipemic agent or antiarteriosclerotic agent containing the same” (priority 1997, dated 1999)
Read-outs that look alike come from different tables or passages of the source.

What was measured:
[1] = system: mouse peritoneal macrophage; conditions: dose 5 μM, microscopic observation
[2] = system: mouse peritoneal macrophage; assay: In vitro tests on inhibition of foaming of macrophage with mouse peritoneal macrophage (cholesteryl ester formation); type: cell-based, mouse (female ICR); conditions: 16 hours at 37° C., read-out: CE (%) (cholesteryl ester-forming rate, ratio to the control)
Description: (1) In vitro tests on inhibition of foaming of macrophage with mouse peritoneal macrophage:
The necks of 15-week old female ICR mice (Japan SLC) were cut off. After blood-letting, Hanks buffer solution (Nissui Seiyaku Co., Ltd.) was injected into the abdominal cavity of each mouse. The abdomen was massaged and then the buffer solution was rapidly recovered, centrifuged at 1000 rotations for 5 minutes to collect the peritoneal macrophages. The peritoneal macrophases thus collected were then suspended in GIT medium (Wako Pure Chemical Industries, Ltd.), and the suspension was spread on a 24-hole microplate. After the cultivation at 37° C. in 5% CO2 for 2 hours, the medium was replaced with a Dulbecoo Modified Eagle's MEM medium (Nissui Seiyaku Co., Ltd.). After the cultivation at 37° C. in 5% CO2 for additional 16 hours, the following substances were added in the following order:
(1) subject: dissolved in DMSO (Wako Pure Chemical Industries, Ltd.)
PC: phosphatidyl choline (a product of Funakoshi)
PS: phosphatidyl serine (ditto)
DCP: dicetyl phosphate (ditto)
CHOL.: cholesterol (Sigma).
After further cultivation at 37° C. in 5% CO2 for 16 hours, the lipid fraction was extracted with chloroform and methanol. The lipid fraction thus extracted was dissolved in isopropyl alcohol, and the formed cholesteryl ester (CE) was determined by an enzymatic coloring method. The cholesteryl ester-forming rate of each compound was calculated in terms of the ratio thereof to the control. The cytotoxicity was examined by microscopic observation of the shape of the cell.
The pharmacological effects of the compounds given in Table 2 were evaluated in the same manner as that of Example 3.

Row | Compound | Cytotoxicity ([1]; Table 2) | Cytotoxicity ([1]; Table 1) | activity at 5 µM ([2]; Table 1, ratio to control) [%] | further results
1 | O=[N+]([O-])c1ccc2[nH]c(SCCCCCSc3nc4cc([N+](=O)[O-])ccc4[nH]3)nc2c1 [IV-5, 1,5-bis(5-nitro-2-benzimidazoylthio)pentane] | none |  |  | 
2 | Cn1c(SCCCCCSc2nc3cc(Cl)c(Cl)cc3n2C)nc2cc(Cl)c(Cl)cc21 [II-33, 1,5-bis(5,6-dichloro-1-methyl-2-benzimidazoylthio) pentane] | none |  |  | 
3 | CCCCCCCCn1c(SCCCCCSc2nc3ccccc3n2CCCCCCCC)nc2ccccc21 [II-30, 1,5-bis(l-octyl-2-benzimidazoylthio)pentane] | none |  |  | 
4 | CCCC(=O)n1c(SCCOCCSc2nc3ccccc3n2C(=O)CCC)nc2ccccc21 [Compound (3)] |  | none | 15 | 
5 | c1ccc(Cn2c(SCCOCCSc3nc4ccccc4n3Cc3ccccc3)nc3ccccc32)cc1 [Compound (10)] |  | none | 76 | 
6 | CCCCCC(=O)n1c(SCCOCCSc2nc3ccccc3n2C(=O)CCCCC)nc2ccccc21 [Compound (5)] |  | none | 20 | 
7 | Cc1ccc2[nH]c(SCCCCCSc3nc4cc(C)ccc4[nH]3)nc2c1 [Compound I-1, 1,5-bis(5-methyl-2-benzimidazoylthio)pentane] | none |  |  | 
8 | CCC(=O)n1c(SCc2cccc(CSc3nc4ccccc4n3C(=O)CC)c2)nc2ccccc21 [II-13, 1,3-bis(1-propionyl-2-benzimidazoylthiomethyl)benzene] | none |  |  | 
9 | Clc1ccc2[nH]c(SCCOCCSc3nc4cc(Cl)ccc4[nH]3)nc2c1 [Compound (14)] |  | none | 18 | 
10 | Clc1ccc2[nH]c(SCCCCCSc3nc4cc(Cl)ccc4[nH]3)nc2c1 [Compound I-3, 1,5-bis(5-chloro-2-benzimidazoylthio)pentane] | none |  |  | 
11 | Cn1c(SCCCCCCCCSc2nc3ccccc3n2C)nc2ccccc21 [II-35, 1,8-bis(1-methyl-2-benzimidazoylthio)octane] | none |  |  | 
12 | CCC(=O)n1c(SCCCCCCCCSc2nc3ccccc3n2C(=O)CC)nc2ccccc21 [II-11, 1,8-bis(1-propionyl-2-benzimidazoyl-thio)octane] | none |  |  | 
13 | c1ccc2[nH]c(SCCCCCCCCSc3nc4ccccc4[nH]3)nc2c1 [IV-2, 1,8-bis(2-benzimidazoylthio)octane] | none |  |  | activity at 5 µM ([2]; Table 2, ratio to control): 28%
14 | CCCn1c(SCCOCCOCCSc2nc3ccccc3n2CCC)nc2ccccc21 [Compound (21)] |  | none | 23 | 
15 | CCC(=O)n1c(SCCCCSc2nc3ccccc3n2C(=O)CC)nc2ccccc21 [II-9, 1,4-bis(1-propionyl-2-benzimidazoylthio)butane] | none |  |  | 
16 | c1ccc2[nH]c(SCCOCCOCCOCCSc3nc4ccccc4[nH]3)nc2c1 [Compound (22)] |  | none | 22 | 
17 | CCCCCCCCn1c(SCCOCCSc2nc3ccccc3n2CCCCCCCC)nc2ccccc21 [Compound (9)] |  | none | 28 | 
18 | O=[N+]([O-])c1ccc2[nH]c(SCCOCCSc3nc4cc([N+](=O)[O-])ccc4[nH]3)nc2c1 [Compound (18)] |  | none | 10 | 
19 | c1ccc2[nH]c(SCCCCCCSc3nc4ccccc4[nH]3)nc2c1 [IV-1, 1,6-bis(2-benzimidazoylthio)hexane] | none |  |  | activity at 5 µM ([2]; Table 2, ratio to control): 28%
20 | Cc1cc2nc(SCCOCCSc3nc4cc(C)c(C)cc4[nH]3)[nH]c2cc1C [Compound (13)] |  | none | 45 | 
21 | CC(=O)n1c(SCCCCCSc2nc3ccccc3n2C(C)=O)nc2ccccc21 [II-1, 1,5-bis(1-acetyl-2-benzimidazoylthio)pentane] | none |  |  | 
22 | c1ccc2[nH]c(SCCOCCSc3nc4ccccc4[nH]3)nc2c1 [Compound (1)] |  | none | 25 | 
23 | CCCCCCCC(=O)n1c(SCCOCCSc2nc3ccccc3n2C(=O)CCCCCCC)nc2ccccc21 [Compound (6)] |  | none | 26 | 
24 | CCC(=O)n1c(SCCOCCOCCSc2nc3ccccc3n2C(=O)CC)nc2ccccc21 [Compound (20)] |  | none | 69 | 

Row | Compound | Cytotoxicity ([1]; Table 2) | Cytotoxicity ([1]; Table 1) | activity at 5 µM ([2]; Table 1, ratio to control) [%] | further results
25 | Cn1c(SCCCCCSc2nc3ccccc3n2C)nc2ccccc21 [II-28, 1,5-bis(1-methyl-2-benzimidazoylthio)pentane] | none |  |  | 
26 | Clc1cc2nc(SCCOCCSc3nc4cc(Cl)c(Cl)cc4[nH]3)[nH]c2cc1Cl [Compound (16)] |  | none | 46 | 
27 | c1ccc2[nH]c(SCCCCSc3nc4ccccc4[nH]3)nc2c1 [IV-3, 1,4-bis(2-benzimidazoylthio)butane] | none |  |  | 
28 | CCC(=O)n1c(SCCCCCCSc2nc3ccccc3n2C(=O)CC)nc2ccccc21 [II-10, 1,6-bis(1-propionyl-2-benzimidazoylthio)hexane] | none |  |  | 
29 | c1cc(CSc2nc3ccccc3[nH]2)cc(CSc2nc3ccccc3[nH]2)c1 [IV-14, 1,3-bis(2-benzimidazoylthiomethyl)benzene] | none |  |  | 
30 | c1ccc2[nH]c(SCc3ccc(CSc4nc5ccccc5[nH]4)cc3)nc2c1 [IV-13, 1,4-bis(2-benzimidazoylthiomethyl)benzene] | none |  |  | 
31 | CCCCC(CC)C(=O)n1c(SCCCCCSc2nc3ccccc3n2C(=O)C(CC)CCCC)nc2ccccc21 (stereo not shown) [II-4, 1,5-bis(1-(2-ethylhexanoyl)-2-benzimidazoylthio) pentane] | none |  |  | 
32 | Cc1cc2nc(SCCCCCSc3nc4cc(C)c(C)cc4[nH]3)[nH]c2cc1C [Compound I-2, 1,5-bis(5,6-dimethyl-2-benzimidazoylthio)pentane] | none |  |  | 
33 | c1ccc(Cn2c(SCCCCCSc3nc4ccccc4n3Cc3ccccc3)nc3ccccc32)cc1 [II-32, 1.5-bis(1-benzyl-2-benzimidazoylthio)pentane] | none |  |  | 
34 | CCC(=O)Nc1ccc2[nH]c(SCCCCCSc3nc4cc(NC(=O)CC)ccc4[nH]3)nc2c1 [IV-8, 1,5-bis(5-propanamido-2-benzimidazoylthio)pentane] | none |  |  | 
35 | c1ccc2[nH]c(SCCOCCOCCSc3nc4ccccc4[nH]3)nc2c1 [Compound (19)] |  | none | 11 | 
36 | CCCn1c(SCCOCCSc2nc3ccccc3n2CCC)nc2ccccc21 [Compound (8)] |  | none | 16 | 
37 | CCCCCCCCCCCCCC(=O)n1c(SCCOCCSc2nc3ccccc3n2C(=O)CCCCCCCCCCCCC)nc2ccccc21 [Compound (7)] |  | none | 74 | 
38 | CCCn1c(SCCCCCSc2nc3ccccc3n2CCC)nc2ccccc21 [II-29, 1,5-bis(1-propyl-2-benzimidazoylthio)pentane] | none |  |  | 
39 | CCCn1c(SCCCCCSc2nc3cc(Cl)c(Cl)cc3n2CCC)nc2cc(Cl)c(Cl)cc21 [II-34, 1,5-bis(5,6-dichloro-1-propyl-2-benzimidazoylthio) pentane] | none |  |  | 
40 | COc1ccc2[nH]c(SCCCCCSc3nc4cc(OC)ccc4[nH]3)nc2c1 [IV-4, 1,5-bis(5-methoxyl-2-benzimidazoylthio)pentane] | none |  |  | 
41 | CCC(=O)n1c(SCCCCCSc2nc3cc(C)c(C)cc3n2C(=O)CC)nc2cc(C)c(C)cc21 [II-15, 1,5-bis(5,6-dimethyl-1-propionyl-2-benzimidazoylthio) pentane] | none |  |  | 
42 | O=C(c1ccc(Cl)cc1)n1c(SCCCCCSc2nc3ccccc3n2C(=O)c2ccc(Cl)cc2)nc2ccccc21 [II-6, 1,5-bis(1-(4-chlorobenzoyl)-2-benzimidazoylthio) pentane] | none |  |  | 
43 | CCC(=O)n1c(SCc2ccc(CSc3nc4ccccc4n3C(=O)CC)cc2)nc2ccccc21 [II-12, 1,4-bis(1-propionyl-2-benzimidazoylthiomethyl)benzene] | none |  |  | 
44 | CCC(=O)n1c(SCCOCCSc2nc3cc(Cl)c(Cl)cc3n2C(=O)CC)nc2cc(Cl)c(Cl)cc21 [Compound (17)] |  | none | 27 | 
45 | CCC(=O)n1c(SCCCCCSc2nc3ccccc3n2C(=O)CC)nc2ccccc21 [II-2, 1,5-bis(1-propionyl-2-benzimidazoylthio)pentane] | none |  |  | 
46 | CCC(=O)n1c(SCCCCCSc2nc3ccc(Cl)cc3n2C(=O)CC)nc2cc(Cl)ccc21 [II-20, 1-(5-chloro-1-propionyl-2-benzimidazoylthio)-5-(6-chloro-1-propionyl-2-benzimidazoylthio)pentane] | none |  |  | 
47 | CCCCC(CC)Cn1c(SCCCCCSc2nc3ccccc3n2CC(CC)CCCC)nc2ccccc21 (stereo not shown) [II-31, 1,5-bis(1-(2-ethylhexyl)-2-benzimidazoylthio)pentane] | none |  |  | 
48 | Clc1cc2nc(SCCCCCSc3nc4cc(Cl)c(Cl)cc4[nH]3)[nH]c2cc1Cl [Compound I-4, 1,5-bis(5,6-dichloro-2-benzimidazoylthio)Pentane] | none |  |  | 
